In patent US5880284A, “Cyclic urea derivatives, pharmaceutical compositions containing these compounds and processes for preparing them” (Dr. Karl Thomae GmbH, priority 1992, dated 1999):
Counter-ions that a name gives are not always drawn. Like-named read-outs stand apart in the source and are kept apart here.

Tests used:
human thrombocytes = experiment: Inhibition of binding of 3H-BIBU 52 to human thrombocytes (fibrinogen-binding test); details: 3H-BIBU 52 final concentration 5 nM, plasma, 20 minutes, ambient temperature; 50% inhibition of binding
Procedure: Inhibition of Binding of ^3 H-BIBU 52 to Human Thrombocytes
A suspension of human thrombocytes in plasma is incubated with ^3 H-BIBU 52 [=(3S,5S)-5-[(4'-amidino-4-biphenylyl)oxymethyl]-3-[(carboxyl)methyl]-2-pyrrolidinone[^3 -^3 H-4-biphenylyl]] […] The free and bound ligand is separated by centrifuging and quantitatively determined by scintillation counting. From the measurements obtained, the inhibition of ^3 H-BIBU 52 binding by the test substance is determined.
In order to do this, donor blood is taken from an anticubital vein and anticoagulated by trisodium citrate (final concentration 13 mM). The blood is centrifuged for 10 minutes at 170×g and the supernatant platelet-rich plasma (PRP) is removed. The remaining blood is vigorously centrifuged once more in order to obtain plasma. The PRP is diluted 1:10 with autologous plasma. 750 μl are incubated with 50 μl of physiological saline solution, 100 μl of test substance solution, 50 μl of ^4 C-sucrose (3,700 Bq) and 50 μl of ^3 H-BIBU 52 (final concentration: 5 nM) at ambient temperature for 20 minutes. In order to measure non-specific binding, instead of the test substance, 5 μl of BIBU 52 are put in (final concentration: 30 μM). The samples are centrifuged for 20 seconds at 10,000×g and the supernatant is drawn off. 100 μl therof are measured in order to determine the free ligand. The pellet is dissolved in 500 μl of 0.2N NaOH, 450 μl are mixed with 2 ml of scintillator and 25 μl of 5N HCl and measured. The residual plasma remaining in the pellet is determined from the ^14 C content, the bound ligand from the ^3 H measurement. After subtracting the non-specific binding, the pellet activity is plotted against the concentration of the test substance and the concentration for a 50% inhibition of binding is determined.

thrombocyte aggregation = experiment: Inhibition of collagen-induced platelet aggregation in platelet-rich plasma (Born and Cross); type: cell-based; details: Homo sapiens, 10 min, read-out: Inhibition of platelet aggregation EC50
Procedure: The thrombocyte aggregatrion is measured using the Born and Cross method (J. Physiol. 170: 397 (1964)) in platelet-rich plasma taken from health volunteers. To inhibit coagulation the blood is mixed with 3.14% sodium citrate in a ratio by volume of 1:10.
Collagen-induced agaregation
The pattern of the decrease in optical density of the platelet suspension is photometrically measured and recorded after the addition of the aggregation-triggering substance. The rate of aggregation is concluded from the angle of inclination of the density curve. The point on the curve where there is maximum light transmittance is used to calculate the optical density.
The amount of collagen used is as small as possible but sufficient to produce an irreversible reaction curve. Standard commercial collagen produced by Hormonchemie of Munich is used.
Before the addition of the collagen the plasma is incubated for 10 minutes with the substance at 37° C.
From the measurements obtained an EC50 is determined graphically, indicating a 50% change in the optical density in terms of the inhibition of aggregation.

[1] = Tolerability after intravenous administration to mice; type: in vivo
thrombocytes = experiment: Collagen-induced aggregation of thrombocytes ex vivo after oral administration; type: in vivo; details: rhesus monkey, oral administration of 1 mg/kg
Procedure: Moreover, the compound of Example 6(14), for example, inhibits the collagen-induced aggregation of thrombocytes in the rhesus monkey ex vivo after the oral administration of 1 mg/kg for up to four hours.

[2] = collagen-induced, platelet-rich plasma, 10 minutes incubation at 37° C., 50% change in optical density

| Compound | IC50 (human thrombocytes) [nM] | EC50 (thrombocyte aggregation; [2]) [nM] | EC50 (thrombocyte aggregation; Platelet) [nM] | Deaths after intravenous administration ([1]; mouse, in vivo, iv, 30 mg/kg) | Deaths after intravenous administration ([1]; mice, 30 mg/kg intravenous, three animals) | Duration of inhibition of collagen-induced aggregation of thrombocytes ex vivo (thrombocytes) |
| --- | --- | --- | --- | --- | --- | --- |
| N=C(N)c1ccc(N2CCN(c3ccc(CCc4nnn[nH]4)cc3)C2=O)cc1 [2(5), 1-(4-amidinophenyl)-3-[4-[2-(5-tetrazolyl)ethyl]phenyl]-imidazolidin-2-one] | 3500 | 3200 |  |  |  |  |
| N=C(N)c1ccc(-n2ncn([C@H]3CC[C@H](CCC(=O)O)CC3)c2=O)cc1 [4(4), 2-(4-amidinophenyl)-4-[trans-4-(2-carboxyethyl)-cyclohexyl]-4H-1,2,4-triazol-3-one] | 2.9 | 30 |  |  |  |  |
| O=C1N(c2ccc(C34CCN(CC3)CC4)cc2)CCN1[C@H]1CC[C@H](C(=O)O)CC1 [1(50), 1-(trans-4-carboxycyclohexyl)-3-[4-(4-quinuclidinyl)-phenyl]-imidazolidin-2-one-hydrochloride×1.2 H2 O] | 65 |  | 170 |  |  |  |
| Cc1nn(-c2ccc(C(=N)N)cc2)c(=O)n1[C@H]1CC[C@@H](CCC(=O)O)CC1 [Example 4, 2-(4-Amidinophenyl)-4-[cis-4-(2-carboxyethyl)cyclo-hexyl]-5-methyl-4H-1,2,4-triazol-3-one] |  | 130 |  |  |  |  |
| Cc1nn(CCC2CCNCC2)c(=O)n1-c1ccc(CCC(=O)O)cc1 [1(4), 4-[4-(2-carboxyethyl)phenyl]-5-methyl-2-[2-(4-piperidinyl)ethyl]-4H-1,2,4-triazol-3-one-toluenesulphonate×water] | 280 | 500 |  | none of the three animals tested died |  |  |
| CCOC(=O)CCc1ccc(N2CCN(CCC34CCN(CC3)CC4)C2=O)cc1 [6(37), 1-[2-(4-quinuclidinyl)ethyl]-3-[4-[2-(ethoxycarbonyl)-ethyl]phenyl]-imidazolidin-2-one-hydro-chloride] | 7100 |  | 380 |  |  |  |
| Cl.O=C(O)CCc1ccc(N2CCN(CCC34CCN(CC3)CC4)C2=O)cc1 [Example 26, 1-[4-(2-Carboxyethyl)phenyl]-3-[2-(4-quinuclidinyl)ethyl]-imidazolidin-2-one-hydrochloride] | 26 |  | 84 |  | none of the three animals tested died |  |
| CCCCS(=O)(=O)NC(Cc1ccc(N2CCN(c3ccc(C(=N)N)cc3)C2=O)cc1)C(=O)O (centres unmarked) [1(21), 1-(4-amidinophenyl)-3-[4-[2-(n-butylsulfonylamino)-2-carboxy-ethyl]phenyl]-imidazolidin-2-one-hydrochloride] | 1 | 36 |  |  |  |  |
| N=C(N)c1ccc(-n2nc(-c3ccccc3)n(-c3ccc(CCC(=O)O)cc3)c2=O)cc1 [1(2), 2-(4-amidinophenyl)-4-[4-(2-carboxyethyl)phenyl]-5-phenyl-4H-1,2,4-triazol-3-one×2 water] | 1.2 | 70 |  |  |  |  |
| O=C(O)CCc1ccc(N2CCN(CCC3CCNCC3)C2=O)cc1 [1(6), 1-[4-(2-carboxyethyl)phenyl]-3-[2-(4-piperidinyl)ethyl]-imidazolidin-2-one-hydrochloride×water] | 18 | 100 |  | none of the three animals tested died |  |  |
| CN1CCC(CCN2CCN(c3ccc(CCC(=O)O)cc3)C2=O)CC1 [Example 15] | 12000 | 4300 |  |  |  |  |
| Cl.O=C(O)CC[C@H]1CC[C@H](N2CCN(CCC3CCNCC3)C2=O)CC1 [1(39), 1-[trans-4-(2-carboxyethyl)cyclohexyl]-3-[2-(4-piperidinyl)ethyl]-imidazolidin-2-one-hydrochloride] | 25 | 86 |  | none of the three animals tested died |  |  |
| Cc1nn(-c2ccc(C(=N)N)cc2)c(=O)n1-c1ccc(CC(C)C(=O)O)cc1 (centres unmarked) [1(1), 2-(4-amidinophenyl)-4-[4-(2-carboxy-1-propyl)phenyl]-5-methyl-4H-1,2,4-triazol-3-one×0.5 water] | 0.8 | 30 |  | none of the three animals tested died |  |  |
| Cc1nn(-c2ccc(C(=N)N)cc2)c(=O)n1-c1cccc(CCC(=O)O)c1 [5(2), 2-(4-amidinophenyl)-4-[3-(2-carboxyethyl)phenyl]-5-methyl-4H-1,2,4-triazol-3-one] | 720 | 840 |  |  |  |  |
| Cc1nn(-c2ccc(C(=N)N)cc2)c(=O)n1-c1ccc(CCC(=O)OC2CCCCC2)cc1.Cl [Example 6(14), 2-(4-amidinophenyl)-4-[4-[2-(cyclohexyloxycarbonyl)-ethyl]phenyl]-5-methyl-4H-1,2,4-triazol-3-one-hydrochloride] | 250 | 40 |  |  |  | up to four |
| CCCC(Cc1ccc(-n2c(C)nn(CCC3CCNCC3)c2=O)cc1)C(=O)O (centres unmarked) [1(8), 4-[4-(2-carboxy-1-pentyl)phenyl]-5-methyl-2-(2-(4-piperidinyl)ethyl)-4H-1,2,4-triazol-3-one-hydrochloride] | 760 | 1200 |  |  |  |  |
| Cl.O=C1N(c2ccc(C3CCNCC3)cc2)CCN1[C@H]1CC[C@H](C(=O)O)CC1 [Example 17, 1-(trans-4-Carboxycyclohexyl)-3-[4-(4-piperidinyl)phenyl]-imidazolidin-2-one-hydrochloride] | 16 | 43 |  | none of the three animals tested died |  |  |
| N#CC1(c2ccc(N3CCN(CCCCC(=O)O)C3=O)cc2)CCNCC1 [24(1), 1-(4-carboxybutyl)-3-[4-(4-cyano-4-piperidinyl)-phenyl]-imidazolidin-2-one] | 150 | 940 |  |  |  |  |
| NC1CCCc2cc(N3CCN(c4ccc(CCC(=O)O)cc4)C3=O)ccc21 (centres unmarked) [1(3), 1-(1-amino-1,2,3,4-tetrahydronaphthalin-6-yl)-3-[4-(2-carboxyethyl)phenyl]-imidazolidin-2-one-hydrochloride] | 64 | 270 |  |  |  |  |

Now from value to compound, other results behind:

| IC50 (human thrombocytes) [nM] | EC50 (thrombocyte aggregation; [2]) [nM] | Compound | EC50 (thrombocyte aggregation; Platelet) [nM] | Deaths after intravenous administration ([1]; mouse, in vivo, iv, 30 mg/kg) | Deaths after intravenous administration ([1]; mice, 30 mg/kg intravenous, three animals) | Duration of inhibition of collagen-induced aggregation of thrombocytes ex vivo (thrombocytes) |
| --- | --- | --- | --- | --- | --- | --- |
| 4100 | 3300 | NCC1CCC(N2CCN(c3ccc(CCC(=O)O)cc3)C2=O)CC1 (centres unmarked) [4(5), 1-[4-(aminomethyl)cyclohexyl]-3-[4-(2-carboxyethyl)phenyl]-imidazolidin-2-one] |  |  |  |  |
| 2500 | 240 | CCOC(=O)[C@H]1CC[C@H](N2CCN(c3ccc(C4CCNCC4)cc3)C2=O)CC1 [6(40), 1-[trans-4-(ethoxycarbonyl)cyclohexyl]-3-[4-(4-piperidinyl)phenyl]-imidazolidin-2-one-hydrochloride] |  |  |  |  |
| 5700 | 630 | CCOC(=O)CC[C@H]1CC[C@H](N2CCN(CCC3CCNCC3)C2=O)CC1 [6(35), 1-[trans-4-[2-(ethoxycarbonyl)ethyl]cyclohexyl]-3-[2-(4-piperidinyl)ethyl]-imidazolidin-2-one-hydrochloride] |  |  |  |  |
|  | 71 | CC1(c2ccc(N3CCN([C@H]4CC[C@H](C(=O)O)CC4)C3=O)cc2)CCNCC1 [24(2), 1-(trans-4-carboxycyclohexyl)-3-[4-(4-methyl-4-piperidinyl)phenyl]-imidazolidin-2-one] |  |  |  |  |
| 200 | 490 | O=C(O)CO[C@H]1CC[C@H](N2CCN(CCC3CCNCC3)C2=O)CC1 [30(4), 1-[trans-4-[(carboxymethyl)oxy]cyclohexyl]-3-[2-(4-piperidinyl)ethyl]-imidazolidin-2-one-hydrochloride×0.3 H2 O] |  |  |  |  |
|  | 110 | O=C1N(C2CCC(C3CCNCC3)CC2)CCN1[C@H]1CC[C@H](C(=O)O)CC1 (some centres unmarked) [18(2)] |  |  |  |  |
| 21000 | 350 | CCOC(=O)CCc1ccc(N2CCN(CCC3CCNCC3)C2=O)cc1 [6(34), 1-[4-[2-(ethoxycarbonyl)ethyl]phenyl]-3-(2-(4-piperidinyl)ethyl]-imidazolidin-2-one-hydrochloride] |  |  |  |  |
|  | 380 | NCC1CCc2cc(N3CCN([C@H]4CC[C@H](C(=O)O)CC4)C3=O)ccc2C1 (relative stereo) [1(44), 1-(2-aminomethyl-1,2,3,4-tetrahydro-6-naphthyl)-3-(trans-4-carboxycyclohexyl)-imidazolidin-2-one-hydrochloride] |  |  |  |  |
| 250 | 300 | O=C(O)C=Cc1ccc(N2CCN(CCC3CCNCC3)C2=O)c(F)c1 [4(13), 1-[4-(2-carboxyethenyl)-2-fluoro-phenyl]-3-[2-(4-piperidinyl)ethyl]-imidazolidin-2-one×1.1 HCl×1 H2 O] |  |  |  |  |
